Experiments:
[1] = system: inflammatory cytokine production; assay: Anti-inflammatory evaluation of purine nucleotides in a similar experimental system; format: cell-based, human; details: similar experimental system to Example 1
Protocol: (§1) Normal human keratinocytes (NHEK; manufactured by Kurabo Industries, Ltd.) were seeded in a 96-well plate at a density of 2.5×10^4 cells/well and cultured at 37° C. for 24 hours. The medium was replaced with 100 μL of sample-containing medium (HuMedia-KG2; manufactured by Kurabo Industries, Ltd.) and cultured for 24 hours. After removing the sample-containing medium, the plate was washed with 100 μL of Hanks balanced salt solution (HBSS (−)) and irradiated with 20 mJ/cm^2 using a UVB lamp (TL20W/12RS; manufactured by PHILIPS). After washing with HBSS (−), the medium was replaced with 100 μL of fresh medium and cultured for 24 hours. After culturing, the culture supernatant was collected. The sample solutions used were 0.8 (mg/mL) of UMP,2Na 0.4, 0.8 (mg/mL) of CMP,2Na 0.4, 0.8 (mg/mL) of U:C=1:1 (mass ratio 1:1 mixture of UMP,2Na and CMP,2Na) 0.4, 0.8 (mg/mL) of U:C=4:1 (mass ratio 4:1 mixture of UMP,2Na and CMP,2Na) 0.4, and 0.8 (mg/mL) of U:C=1:4 (mass ratio 1:4 mixture of UMP,2Na and CMP,2Na) 0.4.
The culture supernatant of human keratinocytes was collected, and amounts of IL-1α, IL-6, and IL-8 were quantified by ELISA.

IL-8 [2] = assay: Anti-inflammatory evaluation using UVB-irradiated three-dimensional cultured human epidermis, IL-8 by ELISA; format: cell-based; details: UVB 600 mJ/cm^2, tested 0.125-1.0 w/v %, FIG. 6
Protocol: (§2) To reproduce the phenomenon that occurs in actual epidermis, three-dimensional cultured human epidermis was used to evaluate the suppression effect of cytidylic acid on inflammatory cytokines induced by UV irradiation. In addition, to verify the relationship between the amount of cytidylic acid and the suppression effect on inflammatory cytokine production, the effects of varying the amount of cytidylic acid were evaluated.
(§3) Three-dimensional cultured human epidermis (LabCyte EPI MODEL 24; manufactured by J TEC) was set in a 24-well plate to which 500 μL of the attached assay medium was added, and acclimated overnight at 37° C. 50 μL of sample-containing PBS (−) was applied from the stratum corneum side and cultured for 24 hours. After removing the sample-containing PBS (−), the plate was washed with PBS (−) and irradiated with 600 mJ/cm^2 using a UVB lamp (TL20W/12RS; manufactured by PHILIPS). The medium was replaced with a fresh medium, 50 μL of sample-containing PBS (−) was newly applied from the stratum corneum side, and further cultured for 48 hours. After culturing, the culture supernatant was collected. The concentrations of cytidylic acid in the respective samples were 0, 0.125, 0.25, 0.5, and 1.0 (w/v %), respectively. Each inflammatory cytokine contained in the supernatant was quantified by ELISA.

IL-1α [3] = assay: Anti-inflammatory evaluation using UVB-irradiated normal human keratinocytes, IL-1α by ELISA; format: cell-based; details: NHEK, UVB 20 mJ/cm^2, sample 0.4 and 0.8 mg/mL, FIG. 1; for amount of IL-1α produced: culture supernatant
Protocol: as §1, with “The effects of using various nucleotides on photoaging of the skin were evaluated using normal human keratinocytes. The effects of various nucleotides on inflammatory cytokines induced by UV irradiation of normal human keratinocytes were evaluated. Known inflammatory cytokines IL-1α, IL-6, and IL-8 were used as the inflammatory cytokines to be evaluated. Normal” for “Normal”, “(-))” for “(−))”, “(T[…]/12RS;” for “(TL20W/12RS;”, “(-),” for “(−),”, “0.4. The culture supernatant of human keratinocytes was collected, and amounts of IL-1α, IL-6, and IL-8 were quantified by ELISA.” for “0.4.”

IL-1α [4] = assay: Anti-inflammatory evaluation using UVB-irradiated three-dimensional cultured human epidermis, IL-1α by ELISA; format: cell-based; details: UVB 600 mJ/cm^2, tested 0.125-1.0 w/v %, FIG. 4
Protocol: as §2, §3

IL-6 [5] = assay: Anti-inflammatory evaluation using UVB-irradiated normal human keratinocytes, IL-6 by ELISA; format: cell-based; details: NHEK, FIG. 2; for concentration dependence of the inhibitory effect on IL-6 / amount of IL-6 produced: UVB 20 mJ/cm^2, sample 0.4 and 0.8 mg/mL; for amount of IL-6 produced: culture supernatant
Protocol: as §1, with “The effects of using various nucleotides on photoaging of the skin were evaluated using normal human keratinocytes. The effects of various nucleotides on inflammatory cytokines induced by UV irradiation of normal human keratinocytes were evaluated. Known inflammatory cytokines IL-1α, IL-6, and IL-8 were used as the inflammatory cytokines to be evaluated. Normal” for “Normal”, “(-))” for “(−))”, “(T[…]/12RS;” for “(TL20W/12RS;”, “(-),” for “(−),”, “0.4. The culture supernatant of human keratinocytes was collected, and amounts of IL-1α, IL-6, and IL-8 were quantified by ELISA.” for “0.4.”

IL-8 [6] = assay: Anti-inflammatory evaluation using UVB-irradiated normal human keratinocytes, IL-8 by ELISA; format: cell-based; details: NHEK, FIG. 3; for concentration dependence of the inhibitory effect on IL-8 / amount of IL-8 produced: UVB 20 mJ/cm^2, sample 0.4 and 0.8 mg/mL; for amount of IL-8 produced: culture supernatant
Protocol: as §1, with “The effects of using various nucleotides on photoaging of the skin were evaluated using normal human keratinocytes. The effects of various nucleotides on inflammatory cytokines induced by UV irradiation of normal human keratinocytes were evaluated. Known inflammatory cytokines IL-1α, IL-6, and IL-8 were used as the inflammatory cytokines to be evaluated. Normal” for “Normal”, “(-))” for “(−))”, “(T[…]/12RS;” for “(TL20W/12RS;”, “(-),” for “(−),”, “0.4. The culture supernatant of human keratinocytes was collected, and amounts of IL-1α, IL-6, and IL-8 were quantified by ELISA.” for “0.4.”

IL-6 [7] = assay: Anti-inflammatory evaluation using UVB-irradiated three-dimensional cultured human epidermis, IL-6 by ELISA; format: cell-based; details: UVB 600 mJ/cm^2, tested 0.125-1.0 w/v %, FIG. 5
Protocol: as §2, §3

[8] = UVB 20 mJ/cm^2, significant difference between uridylic acid and cytidylic acid

Row | Compound | effect of inhibiting inflammatory cytokine production, compared with cytidylic acid and uridylic acid [1] | concentration at which a significant IL-8 production inhibitory effect was observed (IL-8 [2]) [%] | concentration dependence of the inhibitory effect on IL-1α (IL-1α [3]) | amount of IL-1α produced (IL-1α [3]) | concentration at which a significant IL-1α production inhibitory effect was observed (IL-1α [4]) [%] | concentration dependence of the inhibitory effect on IL-6 (IL-6 [5]) | amount of IL-6 produced (IL-6 [5]) | effect of inhibiting IL-6 production, compared with uridylic acid (IL-6 [5]; [8]) | concentration dependence of the inhibitory effect on IL-8 (IL-8 [6]) | amount of IL-8 produced (IL-8 [6]) | effect of inhibiting IL-8 production, compared with uridylic acid (IL-8 [6]; [8]) | concentration at which a significant IL-6 production inhibitory effect was observed (IL-6 [7]) [%]
1 | Nc1ncnc2c1ncn2[C@@H]1O[C@H](COP(=O)(O)O)[C@@H](O)[C@H]1O [adenylic acid] | only a lower effect of inhibiting inflammatory cytokine production than cytidylic acid and uridylic acid |  |  |  |  |  |  |  |  |  |  | 
2 | Nc1ccn([C@@H]2O[C@H](COP(=O)(O)O)[C@@H](O)[C@H]2O)c(=O)n1 [cytidylic acid] |  | ≥ 0.125 | increased the inhibitory effect in a concentration-dependent manner | suppressed the amount of IL-1α produced | ≥ 0.25 | increased the inhibitory effect in a concentration-dependent manner | suppressed the amount of IL-6 produced | particularly remarkable effect of inhibiting IL-6 production | increased the inhibitory effect in a concentration-dependent manner | suppressed the amount of IL-8 produced | particularly remarkable effect of inhibiting IL-8 production | ≥ 0.125
3 | Nc1nc2c(ncn2[C@@H]2O[C@H](COP(=O)(O)O)[C@@H](O)[C@H]2O)c(=O)[nH]1 [guanylic acid] | only a lower effect of inhibiting inflammatory cytokine production than cytidylic acid and uridylic acid |  |  |  |  |  |  |  |  |  |  | 
4 | O=c1ccn([C@@H]2O[C@H](COP(=O)(O)O)[C@@H](O)[C@H]2O)c(=O)[nH]1 [uridylic acid] |  |  | increased the inhibitory effect in a concentration-dependent manner | suppressed the amount of IL-1α produced |  | increased the inhibitory effect in a concentration-dependent manner | suppressed the amount of IL-6 produced |  | increased the inhibitory effect in a concentration-dependent manner | suppressed the amount of IL-8 produced |  | 

— patent publication US20240390251A1, “SKIN CARE COMPOSITION AND USE THEREOF, AND SKIN CARE COMPOSITION RAW MATERIAL” (YAMASA CORPORATION, priority 2021, published 2024)
